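The compound was tested at five concentrations on cells cultured in 96-well plates, with a 48-hour exposure period. At the GI50, growth is halved. The concentration for full growth arrest is given as TGI.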
What was measured:
Assay in all cases: inhibition of tumour cell growth, NCI panel, 48 h
HCC-2998 colon = tested on: HCC-2998 colon
SK-OV-3 ovarian = tested on: SK-OV-3 ovarian
HOP-92 NSCLC = tested on: HOP-92 NSCLC
BT-549 breast = tested on: BT-549 breast
DU-145 prostate = tested on: DU-145 prostate
HCT-15 colon = tested on: HCT-15 colon
SF-539 CNS = tested on: SF-539 CNS
M14 melanoma = tested on: M14 melanoma
COLO 205 colon = tested on: COLO 205 colon
ACHN renal = tested on: ACHN renal
CCRF-CEM leukemia = tested on: CCRF-CEM leukemia
MALME-3M melanoma = tested on: MALME-3M melanoma
UACC-257 melanoma = tested on: UACC-257 melanoma
OVCAR-8 ovarian = tested on: OVCAR-8 ovarian
NCI-H522 lung = tested on: NCI-H522 lung
UO-31 renal = tested on: UO-31 renal
SF-268 CNS = tested on: SF-268 CNS
RXF 393 renal = tested on: RXF 393 renal
SNB-75 CNS = tested on: SNB-75 CNS
SK-MEL-28 melanoma = tested on: SK-MEL-28 melanoma
SF-295 CNS = tested on: SF-295 CNS
MCF7 breast = tested on: MCF7 breast
MDA-MB-231 breast = tested on: MDA-MB-231 breast
NCI/ADR-RES ovarian = tested on: NCI/ADR-RES ovarian
SNB-19 CNS = tested on: SNB-19 CNS
A498 renal = tested on: A498 renal
RPMI-8226 leukemia = tested on: RPMI-8226 leukemia
OVCAR-5 ovarian = tested on: OVCAR-5 ovarian
HL-60(TB) leukemia = tested on: HL-60(TB) leukemia
T-47D breast = tested on: T-47D breast
K-562 leukemia = tested on: K-562 leukemia
LOX IMVI melanoma = tested on: LOX IMVI melanoma
SN12C renal = tested on: SN12C renal
OVCAR-4 ovarian = tested on: OVCAR-4 ovarian
HOP-62 NSCLC = tested on: HOP-62 NSCLC
OVCAR-3 ovarian = tested on: OVCAR-3 ovarian
NCI-H226 lung = tested on: NCI-H226 lung
IGROV1 ovarian = tested on: IGROV1 ovarian
A549 NSCLC = tested on: A549 NSCLC
NCI-H460 lung = tested on: NCI-H460 lung
PC-3 prostate = tested on: PC-3 prostate
UACC-62 melanoma = tested on: UACC-62 melanoma
NCI-H23 lung = tested on: NCI-H23 lung
SK-MEL-5 melanoma = tested on: SK-MEL-5 melanoma
MDA-MB-435 = tested on: MDA-MB-435
HT29 colon = tested on: HT29 colon
HS 578T breast = tested on: HS 578T breast
U251 CNS = tested on: U251 CNS
SK-MEL-2 melanoma = tested on: SK-MEL-2 melanoma
786-0 renal = tested on: 786-0 renal
KM12 colon = tested on: KM12 colon
SW-620 colon = tested on: SW-620 colon
CAKI-1 renal = tested on: CAKI-1 renal
MOLT-4 leukemia = tested on: MOLT-4 leukemia
SR leukemia = tested on: SR leukemia
TK-10 renal = tested on: TK-10 renal
HCT-116 colon = tested on: HCT-116 colon
EKVX NSCLC = tested on: EKVX NSCLC

Nc1c(C(=O)Nc2ccccc2Cl)sc2nc3c(cc12)C(=O)CCC3
GI50 (HCC-2998 colon): 21.2 µM
TGI (HCC-2998 colon): > 100 µM
GI50 (SK-OV-3 ovarian): 782 nM
TGI (SK-OV-3 ovarian): > 50.5 µM
GI50 (HOP-92 NSCLC): 7.29 µM
TGI (HOP-92 NSCLC): > 100 µM
GI50 (BT-549 breast): > 100 µM
TGI (BT-549 breast): > 100 µM
GI50 (DU-145 prostate): 10.3 µM
TGI (DU-145 prostate): > 100 µM
GI50 (HCT-15 colon): 626 nM
TGI (HCT-15 colon): > 100 µM
GI50 (SF-539 CNS): 1150 nM
TGI (SF-539 CNS): > 100 µM
GI50 (M14 melanoma): 1060 nM
TGI (M14 melanoma): > 100 µM
GI50 (COLO 205 colon): 724 nM
TGI (COLO 205 colon): 3.54 µM
GI50 (ACHN renal): 15.9 µM
TGI (ACHN renal): > 100 µM
GI50 (CCRF-CEM leukemia): > 100 µM
TGI (CCRF-CEM leukemia): > 100 µM
GI50 (MALME-3M melanoma): 2780 nM
TGI (MALME-3M melanoma): > 100 µM
GI50 (UACC-257 melanoma): 1620 nM
TGI (UACC-257 melanoma): > 100 µM
GI50 (OVCAR-8 ovarian): > 25 µM
TGI (OVCAR-8 ovarian): > 100 µM
GI50 (NCI-H522 lung): 777 nM
TGI (NCI-H522 lung): > 100 µM
GI50 (UO-31 renal): > 100 µM
TGI (UO-31 renal): > 100 µM
GI50 (SF-268 CNS): 39.3 µM
TGI (SF-268 CNS): > 100 µM
GI50 (RXF 393 renal): 2370 nM
TGI (RXF 393 renal): > 28.7 µM
GI50 (SNB-75 CNS): 2460 nM
TGI (SNB-75 CNS): > 84 µM
GI50 (SK-MEL-28 melanoma): 22.4 µM
TGI (SK-MEL-28 melanoma): > 100 µM
GI50 (SF-295 CNS): 542 nM
TGI (SF-295 CNS): > 27.5 µM
GI50 (MCF7 breast): 494 nM
TGI (MCF7 breast): > 100 µM
GI50 (MDA-MB-231 breast): 6.97 µM
TGI (MDA-MB-231 breast): > 100 µM
GI50 (NCI/ADR-RES ovarian): 5.34 µM
TGI (NCI/ADR-RES ovarian): > 100 µM
GI50 (SNB-19 CNS): 12.5 µM
TGI (SNB-19 CNS): > 100 µM
GI50 (A498 renal): 229 nM
TGI (A498 renal): > 100 µM
GI50 (RPMI-8226 leukemia): > 100 µM
TGI (RPMI-8226 leukemia): > 100 µM
GI50 (OVCAR-5 ovarian): > 100 µM
TGI (OVCAR-5 ovarian): > 100 µM
GI50 (HL-60(TB) leukemia): 3.72 µM
TGI (HL-60(TB) leukemia): > 100 µM
GI50 (T-47D breast): > 40 µM
TGI (T-47D breast): > 100 µM
GI50 (K-562 leukemia): 493 nM
TGI (K-562 leukemia): > 100 µM
GI50 (LOX IMVI melanoma): 51.9 µM
TGI (LOX IMVI melanoma): > 100 µM
GI50 (SN12C renal): > 100 µM
TGI (SN12C renal): > 100 µM
GI50 (OVCAR-4 ovarian): > 27.5 µM
TGI (OVCAR-4 ovarian): > 100 µM
GI50 (HOP-62 NSCLC): 4.33 µM
TGI (HOP-62 NSCLC): > 67.3 µM
GI50 (OVCAR-3 ovarian): 1220 nM
TGI (OVCAR-3 ovarian): > 100 µM
GI50 (NCI-H226 lung): 14.6 µM
TGI (NCI-H226 lung): > 100 µM
GI50 (IGROV1 ovarian): > 100 µM
TGI (IGROV1 ovarian): > 100 µM
GI50 (A549 NSCLC): 648 nM
TGI (A549 NSCLC): > 100 µM
GI50 (NCI-H460 lung): 673 nM
TGI (NCI-H460 lung): > 100 µM
GI50 (PC-3 prostate): 1160 nM
TGI (PC-3 prostate): > 100 µM
GI50 (UACC-62 melanoma): 789 nM
TGI (UACC-62 melanoma): > 100 µM
GI50 (NCI-H23 lung): 2040 nM
TGI (NCI-H23 lung): > 100 µM
GI50 (SK-MEL-5 melanoma): 1020 nM
TGI (SK-MEL-5 melanoma): > 100 µM
GI50 (MDA-MB-435): 137 nM
TGI (MDA-MB-435): 349 nM
GI50 (HT29 colon): 610 nM
TGI (HT29 colon): > 100 µM
GI50 (HS 578T breast): 3.56 µM
TGI (HS 578T breast): > 100 µM
GI50 (U251 CNS): 4.18 µM
TGI (U251 CNS): > 100 µM
GI50 (SK-MEL-2 melanoma): 1090 nM
TGI (SK-MEL-2 melanoma): > 100 µM
GI50 (786-0 renal): 37.7 µM
TGI (786-0 renal): > 100 µM
GI50 (KM12 colon): 592 nM
TGI (KM12 colon): > 100 µM
GI50 (SW-620 colon): 556 nM
TGI (SW-620 colon): > 100 µM
GI50 (CAKI-1 renal): 1840 nM
TGI (CAKI-1 renal): > 100 µM
GI50 (MOLT-4 leukemia): > 100 µM
TGI (MOLT-4 leukemia): > 100 µM
TGI (SR leukemia): > 100 µM
GI50 (TK-10 renal): 78.6 µM
TGI (TK-10 renal): > 100 µM
GI50 (HCT-116 colon): 54.9 µM
TGI (HCT-116 colon): > 100 µM

COc1ccc(CNc2nc(NC3CCCCC3)nc(NC3CCCCC3)n2)cc1
TGI (SK-OV-3 ovarian): > 100 µM
TGI (HOP-92 NSCLC): > 100 µM
TGI (BT-549 breast): > 100 µM
TGI (DU-145 prostate): > 100 µM
TGI (HCT-15 colon): 5.5 µM
TGI (SF-539 CNS): > 100 µM
TGI (M14 melanoma): > 100 µM
TGI (COLO 205 colon): 20.9 µM
TGI (ACHN renal): > 100 µM
TGI (CCRF-CEM leukemia): > 100 µM
TGI (MALME-3M melanoma): 64.2 µM
TGI (UACC-257 melanoma): > 100 µM
TGI (OVCAR-8 ovarian): > 100 µM
TGI (NCI-H522 lung): 28.8 µM
TGI (UO-31 renal): 67.2 µM
TGI (SF-268 CNS): > 100 µM
TGI (RXF 393 renal): 7.94 µM
TGI (SNB-75 CNS): > 100 µM
TGI (SK-MEL-28 melanoma): > 100 µM
TGI (SF-295 CNS): > 100 µM
TGI (MCF7 breast): 18.8 µM
TGI (MDA-MB-231 breast): 20.1 µM
TGI (NCI/ADR-RES ovarian): > 100 µM
TGI (SNB-19 CNS): > 100 µM
TGI (OVCAR-5 ovarian): > 100 µM
TGI (HL-60(TB) leukemia): > 100 µM
TGI (T-47D breast): 44 µM
TGI (K-562 leukemia): > 100 µM
TGI (LOX IMVI melanoma): 4.44 µM
TGI (SN12C renal): > 100 µM
TGI (OVCAR-4 ovarian): > 100 µM
TGI (HOP-62 NSCLC): > 100 µM
TGI (OVCAR-3 ovarian): > 100 µM
TGI (NCI-H226 lung): 15.5 µM
TGI (IGROV1 ovarian): 61.6 µM
TGI (A549 NSCLC): > 100 µM
TGI (NCI-H460 lung): 15.6 µM
TGI (PC-3 prostate): > 100 µM
TGI (UACC-62 melanoma): 50.9 µM
TGI (NCI-H23 lung): 12.6 µM
TGI (SK-MEL-5 melanoma): 14.4 µM
TGI (EKVX NSCLC): > 100 µM
TGI (MDA-MB-435): > 100000 nM
TGI (HT29 colon): > 100 µM
TGI (HS 578T breast): > 100 µM
TGI (U251 CNS): 84.7 µM
TGI (SK-MEL-2 melanoma): 80.3 µM
TGI (786-0 renal): 70.3 µM
TGI (KM12 colon): 3.84 µM
TGI (SW-620 colon): 50 µM
TGI (CAKI-1 renal): > 100 µM
TGI (MOLT-4 leukemia): > 100 µM
TGI (TK-10 renal): > 100 µM
TGI (HCT-116 colon): 16 µM

From PubChem BioAssay (NCI)
